According to PMC2116148 (The Journal of Cell Biology, 1990):

Experiments:
Assay type in all cases: cell-based, mouse
[1] = tested on: K1735 M4 murine melanoma cell line; experiment: Cell adhesion and spreading assay on peptide- or protein-coated Immulon 1 plates
[2] = tested on: M4 melanoma cells; details: even at the highest concentrations tested (Fig. 7, up to 500 μg/ml)
[3] = tested on: M4 melanoma cells; details: filters coated with type IV collagen; soluble control peptide (Fig. 3c)

GVKGDKGNAGWAGAA(Y) [peptide IV-H1A]
melanoma cell spreading compared with peptide IV-H1 ([1]; all peptide concentrations (5-500 μg/ml), all time points (20-90 min) (Fig. 6)): decreased ability to spread
melanoma cell adhesion on alanyl-substituted peptide compared with peptide IV-H1 ([1]; coated surfaces, up to 500 μg/ml (Fig. 5)): nearly the same extent
cell motility through coated filters [2]: not observed

GVPGKDGQAGQPGQP(Y) [peptide 17]
promotion of melanoma cell adhesion or spreading ([1]; control peptide, coated surface): does not promote
effect on type IV collagen-mediated cell motility [3]: no effect
